Data taken from patent publication US20140066469A1, “TREATMENT OF DISEASES ASSOCIATED WITH INFLAMMATION” (Department of Veterans Affairs, priority 2012, published 2014).
Where two headings read alike, the source gives them in different places. Each block holds one compound with its values, some of them ahead of it.

Legend:
[1] = test system: inflammatory cytokines in OA synovium; test: Multiplex cytokine analysis of synovium from DMM joints; format: in vivo, C57BL6 (B6) mice; details: HCQ sulfate 100 mg/kg/day or atorvastatin calcium 40 mg/kg/day, 3 months; vs vehicle
Procedure: FIG. 14. […] 3 months after surgery, the mice were sacrificed and the synovium of the operated joint isolated. The collected synovial membrane tissues were used to generate protein lysates, on which multiplex cytokine analysis was performed using the Luminex System and the Bio-Rad BioPlex 23plex mouse cytokine detection kit. Each sample was run in triplicate. […] (A) Heatmap presenting the relative levels (as compared to mean levels in the vehicle-control treated group). (B) Bar-graph display of mean cytokine levels for the indicated treatment groups.
After 3 months, mice were sacrificed, their joints harvested, and synovial tissue isolated from the joint by microdissection. The synovial tissues were homogenized and centrifuged, and the resulting supernatants were assayed for levels of inflammatory cytokines by using a multiplex bead-based cytokine assay (BioRad Laboratories, Hercules, Calif.).

[2] = oral; cited from earlier work
[3] = Patient case example, LDL cholesterol (Example 14); format: in vivo, humans; details: person, baseline 140 mg/dL, over several months
[4] = test system: retinal ganglion cell layer (GCL)
Description: After 3 months, mice were sacrificed, and their eyes were carefully isolated by microdissection. The eyes were fixed in formalin and sectioned to allow visualization of the retina.

[5] = cited from earlier work
non-erosive OA = details: general non-erosive human OA; cited from earlier work
[6] = test system: osteoarthritis (OA) induced by destabilization of the medial meniscus (DMM); test: DMM mouse model of OA, histological scoring of stifle joints; format: in vivo, C57BL6 (B6) mice; details: Example 1; HCQ sulfate 100 mg/kg/day and/or atorvastatin calcium 40 mg/kg/day, oral gavage, 12 weeks; t test
Procedure: Experiments were performed under protocols approved by the Stanford University Committee of Animal Research and in accordance with NIH guidelines.

[7] = currently FDA-approved doses; cited from earlier work
retina = details: cited from earlier work; for ophthalmoscopically visualized loss of retinal pigmented epithelium (eye toxicity): treated humans after 5 years
[8] = coadministered with HCQ vs methotrexate alone

- disarrangement of the GCL ([4]; HCQ sulfate 100 mg/kg/day and/or atorvastatin calcium 40 mg/kg/day, 3 months): no disarrangement
SMILES: CC(C)c1c(C(=O)Nc2ccccc2)c(-c2ccccc2)c(-c2ccc(F)cc2)n1CC[C@@H](O)C[C@@H](O)CC(=O)O [Atorvastatin, atorvastatin]
- levels of inflammatory cytokines in OA synovium [1]: lower
- systemic availability for HMG-CoA reductase activity [2]: approximately 30%
- LDL cholesterol [3]: 115 mg/day
- number of nuclei in the GCL (viable retinal ganglion cells) ([4]; 3 months, vs vehicle, two-tailed t test): did not differ

SMILES: CN(Cc1cnc2nc(N)nc(N)c2n1)c1ccc(C(=O)N[C@@H](CCC(=O)O)C(=O)O)cc1 [methotrexate]
- maximum methotrexate concentration (Cmax) [5, 8]: decreased
- mean area under the concentration-time curve (AUC) for methotrexate [5, 8]: increased

SMILES: CCN(CCO)CCCC(C)Nc1ccnc2cc(Cl)ccc12 (centres unmarked) [HCQ, hydroxychloroquine]
- AUC of HCQ ([5]; between dosing occasions): no significant difference
- levels of inflammatory cytokines in OA synovium [1]: lower
- disease-modifying or pain-reducing activity (non-erosive OA): failed to demonstrate
- number of nuclei in the GCL (viable retinal ganglion cells) ([4]; mouse, in vivo): significantly lower
- Osteophyte score (osteophyte formation) [6]: not as potent
- Synovitis score [6]: not as potent
- Oral Bioavailability [7]: 89%
- T1/2 [7]: 41 days
- Tmax [7]: 0.083 to 0.12 days
- Vd [7]: 605 L
- retinal toxicity (retina; after 5-7 years of use): ~1%
- prevalence of retinal toxicity (retina; conventional doses of HCQ (400 mg/day common)): 6.8 users per 1,000
- clinically apparent eye toxicity (retina; patients): less than 1%
- ophthalmoscopically visualized loss of retinal pigmented epithelium (eye toxicity) (retina): 1%
- physician discontinuation for earlier eye problems (retina; treated patients over 5 years): ~7%

SMILES: CCN(CC)CCCC(C)Nc1ccnc2cc(Cl)ccc12 (centres unmarked) [chloroquine]
- ophthalmoscopically visualized loss of retinal pigmented epithelium (eye toxicity) (retina): considerably higher
